Measurements reported in patent US20110319392A1, “Thiazole Sulfonamide And Oxazole Sulfonamide Kinase Inhibitors” (priority 2009, published 2011).

Assays:
ErbB2 = biological target: T1, ErbB2 (Homo sapiens, UniProt P04626); assay: ErbB-2 substrate phosphorylation assay (HTRF); assay type: biochemical
T1 construct: made in house; host or cells: baculovirus expression system
Experimental: (§1) Compounds of the present invention were tested for EGFR and ErbB-2 protein tyrosine kinase inhibitory activity in substrate phosphorylation assays using enzymes purified from a baculovirus expression system. Reagent production was conducted essentially as described in Brignola, P. S., et al, (2002) J. Biol. Chem. 277(2):1576-1585.
(§2) The method measures the ability of the isolated enzyme to catalyse the transfer of the gamma-phosphate from ATP onto the tyrosine residue of a biotinylated synthetic peptide referenced “Peptide C” in Brignola, P. S., et al, (2002) J. Biol. Chem. 277(2):1576-1585. The extent of tyrosine phosphorylation was measured using an anti-phosphotyrosine antibody, and quantified by homogenous time-resolved fluorescence (HTRF).
(§3) Reactions were performed in black 384-well polystyrene flat-bottom plates in a final volume of 20 μL. Assays were performed by adding 10 μL of each of the following solutions, Substrate Mix and Enzyme Mix: The Substrate Mix contained 100 mM 3-[N-morpholino]propanesulfonic acid (MOPS) (pH 7.5), 2 mM MnCl2, 20 μM ATP, 0.01% Tween-20, 0.1 mg/mL (BSA), 0.8 uM peptide substrate, and 1 mM dithiothreitol. The Enzyme Mix contained 100 mM MOPS (pH7.5); 0.01% Tween-20; 0.1 mg/mL BSA, and either 0.8 nM EGFR, 10 nM ErbB2, or 1 nM ErbB4. The Enzyme Mix was added to the compound plates and the plates were incubated at 20° C. for 1 hr. The reactions were then started by adding the Substrate Mix.
(§4) After initiating the reaction with the method described above, the reactions were allowed to proceed for 90 minutes at 20° C. The reactions were then terminated by the addition of 20 μL 100 mM EDTA to each well. 40 μL/well of HTRF detection mix were added to the assay plates. The final concentrations of the detection reagents were: 100 mM HEPES (pH7.5), 0.1 mg/mL BSA, 15 nM streptavidin-labeled allophycocyanin (PerkinElmer), and 1 nM europium-labeled anti-phosphotyrosine antibody (Perkin Elmer). Assay plates were left unsealed and were counted in a Wallac Multilabel Counter 1420 (PerkinElmer).
(§5) Compounds under analysis were dissolved in dimethylsulfoxide (DMSO) to 1.0 mM and serially diluted 1 to 3 with DMSO through twelve dilutions. 1 μL of each concentration was transferred to the corresponding well of an assay plate. This creates a final compound concentration range from 0.00027 to 47.6 μM.
(§6) The data for dose responses were plotted as % Inhibition calculated with the data reduction formula 100*(1-(U1−C2)/(C1−C2)) versus concentration of compound where U1 is the unknown value, C1 is the average control value obtained for 4.76% DMSO, and C2 is the average control value obtained for 0.035 M EDTA. Data were fitted with a curve described by:
(§7) where Vmax is the upper asymptote, Y2 is the Y intercept, and K is the IC50. The results for each compound were recorded as pIC50s, calculated as follows: […]

SK-MEL-28 tumor cells = assay: Cell growth inhibition assay (CellTiter-Glo), SK-MEL-28; assay type: cell-based, Human; conditions: Homo sapiens, SK-MEL-28, 72 h; 3 days incubation
Experimental: (§8) Human breast tumor cells (BT474) were cultured in RPMI (Mediatech […]), containing 10% FBS (JRH Biosciences 12176) and 1% penicillin-streptomycin (Invitrogen 15140). Human head and neck tumor cells (HN5) were cultured in high glucose DMEM (Mediatech 50-013-PB) containing 10% FBS and 1% penicillin-streptomycin. Human colon tumor cells (Colo205) were cultured in RPMI (Mediatech 50-020-PB) containing 10% FBS and 1% penicillin-streptomycin. Human melanoma cancer cells (SK-MEL-28) were cultured in EMEM with nonessential amino acids (Mediatech 50-011-PB) containing 10% FBS, 1% sodium pyruvate (JT Baker 3354-04), and 1% penicillin-streptomycin. Human melanoma cancer cells (A375P F11s) were cultured in RPMI (Mediatech 50-020-PB) containing 10% FBS, 1% sodium pyruvate, and 1% penicillin-streptomycin. Human colon cancer cells (HT-29) were cultured in high glucose DMEM (Mediatech 50-013-PB) containing 10% FBS and 1% penicillin-streptomycin. Human melanoma cancer cells (SK-MEL-3) were cultured in McCoy's 5A (50-025-PB) containing 15% FBS, and 1% penicillin-streptomycin. All cell lines were maintained at 37° C. in a humidified 5% CO2, 95% air incubator. Cells were harvested using trypsin/EDTA (Invitrogen 25200), counted using a haemocytometer, and plated. For 96-well assays (using white full-area NUNC plates cat. #136102), cells were plated in 105 μL at the following densities (cells/well): HNS, 500; Colo 205, 500; SK-MEL-28, 500; A375P F11s, 500; HT-29, 500; SK-MEL-3, 500; and BT474, 3000. For 384-well assays (white full-area NUNC plates, cat. #781080), cells were plated in 48 μL at the following densities (cells/well): HNS, 500; Colo205, 500; SK-MEL-28, 500; A375P F11s, 500; HT-29, 500; SK-MEL-3, 500; and BT474, 2000.
(§9) The next day, compounds were diluted as follow: For 96-well assays, 13.5 μL of compound in DMSO were diluted using nine (9) serial 1:3 dilutions of 4.5 μL in 9 of DMSO. Medium (270 μL/well of RPMI with 10% FBS and 1% penicillin-streptomycin) was added to the plates. Aliquots (7 μL) were added to cells in the final assay giving a final DMSO concentration of 0.2%. For 384-well assays, 15 μL of compound in DMSO were diluted using nine (9) serial 1:3 dilutions of 5 μL in 10 μL of DMSO, followed by a further dilution of 5 μL of compound with 95 μL of medium, of which 2 μL were added to cells in the final assay giving a final DMSO concentration of 0.2%. Cells were incubated at 37° C., 5% CO2 for 3 days.
(§10) Total ATP was measured (as a surrogate estimate of cell number) using CellTiter-Glo® reagent (Promega G7571). Briefly, plates were removed from the incubator and allowed to equilibrate to room temperature for 30 minutes. CellTiter-Glo® (25 μL or 55 μL for 384-well or 96-well assays, respectively) reagent was added to each well and plates were shaken on an orbital plate shaker for 2 minutes. Plates were incubated without shaking for a further 30 minutes and read on an LJL Analyst GT reader in luminometer mode with an integration time of 0.5 seconds per well. Percent inhibition of cell growth was calculated relative to DMSO vehicle-treated control wells. Concentration of compound required to give 50% inhibition of vehicle-treated control cell growth (IC50) was interpolated using a 4-parameter fit for determining IC50 using the following equation: Y=A +((B−A)/(1+((C/X)̂D))) where […].

B-Raf = B-Raf (Homo sapiens, UniProt P15056); assay: B-Raf Accelerated MEK ATPase assay (BRAMA), Method A or B; assay type: biochemical; conditions: Method B: final MEK 150 nM, single end point read
Experimental: Compounds of the present invention were tested for B-Raf protein serine kinase inhibitory activity in a B-Raf Accelerated MEK ATPase assay (BRAMA). The BRAMA assay is a high sensitivity assay which measures an intrinsic MEK-mediated ATP hydrolysis uncoupled from downstream ERK phosphorylation by coupling the formation of ADP to NADH oxidation through the enzymes pyruvate kinase and lactate dehydrogenase. When ADP production is initiated by addition of catalytic amounts of an activated Raf enzyme and non-phosphorylated MEK, one observes robust ADP production concomitant with Raf-mediated phosphorylation of MEK.
Method A: Specific details of the assay are disclosed in: C. Rominger, M. Schaber, E. May. Assay for B-Raf Activity Based on Intrinsic MEK ATPase Activity. Statutory Invention Registration 11/084,993 (March, 2005). Method B: The method is the same as method A, but includes the following changes: 1) the assay was performed with a final MEK concentration of 150 nM and 2) the assay was read as single end point instead of a kinetic read.

EGFR = biological target: T2, EGFR (Homo sapiens, UniProt P00533); assay: EGFR substrate phosphorylation assay (HTRF); assay type: biochemical
T2 construct: made in house; host or cells: baculovirus expression system
Experimental: as §1, §2, §3, §4, §5, §6, §7

Colo205 tumor cells = assay: Cell growth inhibition assay (CellTiter-Glo), Colo205; assay type: cell-based, Human; conditions: Homo sapiens, COLO 205, 72 h; 3 days incubation
Experimental: as §8, §9, §10

T1 sequence (P04626 23-1255): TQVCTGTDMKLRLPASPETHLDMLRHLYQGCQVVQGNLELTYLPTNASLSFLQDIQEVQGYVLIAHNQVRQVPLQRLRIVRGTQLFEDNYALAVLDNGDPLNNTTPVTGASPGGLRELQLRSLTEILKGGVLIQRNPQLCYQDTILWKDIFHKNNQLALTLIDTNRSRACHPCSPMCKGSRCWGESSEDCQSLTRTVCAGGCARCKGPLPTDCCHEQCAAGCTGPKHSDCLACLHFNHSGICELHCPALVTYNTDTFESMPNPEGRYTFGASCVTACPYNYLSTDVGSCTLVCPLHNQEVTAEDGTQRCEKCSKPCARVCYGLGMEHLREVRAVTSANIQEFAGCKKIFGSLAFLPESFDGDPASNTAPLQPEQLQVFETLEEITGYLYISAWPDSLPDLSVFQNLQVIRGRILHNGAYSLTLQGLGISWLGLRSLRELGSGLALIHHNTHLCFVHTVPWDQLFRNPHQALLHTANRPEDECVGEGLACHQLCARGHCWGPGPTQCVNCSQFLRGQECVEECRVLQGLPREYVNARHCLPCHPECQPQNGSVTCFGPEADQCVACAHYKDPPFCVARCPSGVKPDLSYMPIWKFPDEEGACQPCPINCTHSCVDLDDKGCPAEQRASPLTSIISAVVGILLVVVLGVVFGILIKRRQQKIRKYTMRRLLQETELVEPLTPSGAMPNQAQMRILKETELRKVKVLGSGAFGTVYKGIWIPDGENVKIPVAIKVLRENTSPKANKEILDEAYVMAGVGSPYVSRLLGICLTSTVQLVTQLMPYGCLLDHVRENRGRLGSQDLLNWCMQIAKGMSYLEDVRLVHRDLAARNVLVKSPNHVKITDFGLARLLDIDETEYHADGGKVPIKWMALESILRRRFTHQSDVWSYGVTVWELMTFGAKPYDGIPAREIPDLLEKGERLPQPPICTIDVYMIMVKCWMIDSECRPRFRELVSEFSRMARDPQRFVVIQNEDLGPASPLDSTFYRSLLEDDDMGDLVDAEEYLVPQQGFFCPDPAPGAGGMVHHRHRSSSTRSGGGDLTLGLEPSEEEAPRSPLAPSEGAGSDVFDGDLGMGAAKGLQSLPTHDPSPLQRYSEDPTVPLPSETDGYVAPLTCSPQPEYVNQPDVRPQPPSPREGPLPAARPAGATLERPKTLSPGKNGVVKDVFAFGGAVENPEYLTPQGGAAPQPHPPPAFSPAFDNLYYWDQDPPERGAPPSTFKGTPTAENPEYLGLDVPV
T2 sequence (P00533 25-1210): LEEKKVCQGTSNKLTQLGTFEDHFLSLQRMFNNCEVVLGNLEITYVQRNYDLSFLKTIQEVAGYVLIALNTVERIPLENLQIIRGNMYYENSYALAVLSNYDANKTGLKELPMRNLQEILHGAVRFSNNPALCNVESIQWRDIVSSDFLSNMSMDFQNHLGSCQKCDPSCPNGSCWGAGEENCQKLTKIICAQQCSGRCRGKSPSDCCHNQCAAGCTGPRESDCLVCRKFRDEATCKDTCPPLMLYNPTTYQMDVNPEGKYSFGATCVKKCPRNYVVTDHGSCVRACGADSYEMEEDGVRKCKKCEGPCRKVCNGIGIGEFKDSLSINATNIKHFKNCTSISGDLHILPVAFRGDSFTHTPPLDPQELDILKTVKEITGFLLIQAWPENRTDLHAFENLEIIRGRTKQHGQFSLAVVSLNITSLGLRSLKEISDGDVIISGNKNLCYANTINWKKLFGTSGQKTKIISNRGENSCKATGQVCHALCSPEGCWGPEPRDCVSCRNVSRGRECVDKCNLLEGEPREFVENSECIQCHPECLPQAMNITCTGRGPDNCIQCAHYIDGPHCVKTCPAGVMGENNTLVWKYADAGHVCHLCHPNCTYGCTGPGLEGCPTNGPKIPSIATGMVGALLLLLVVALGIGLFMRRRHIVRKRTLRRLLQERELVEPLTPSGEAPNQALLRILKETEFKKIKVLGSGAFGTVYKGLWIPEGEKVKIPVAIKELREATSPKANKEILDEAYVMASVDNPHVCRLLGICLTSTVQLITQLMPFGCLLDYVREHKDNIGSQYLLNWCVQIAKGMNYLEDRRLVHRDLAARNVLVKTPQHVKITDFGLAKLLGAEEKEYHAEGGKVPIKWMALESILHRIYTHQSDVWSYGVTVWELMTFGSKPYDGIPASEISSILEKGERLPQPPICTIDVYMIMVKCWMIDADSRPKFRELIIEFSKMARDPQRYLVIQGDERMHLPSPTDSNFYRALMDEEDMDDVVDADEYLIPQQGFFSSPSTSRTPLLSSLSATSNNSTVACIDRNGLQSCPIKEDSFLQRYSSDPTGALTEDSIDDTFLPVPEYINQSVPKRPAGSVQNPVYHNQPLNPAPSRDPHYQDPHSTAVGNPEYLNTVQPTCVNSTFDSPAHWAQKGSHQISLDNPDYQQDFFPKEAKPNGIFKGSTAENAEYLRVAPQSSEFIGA
Sequence of B-Raf (P15056 whole entry): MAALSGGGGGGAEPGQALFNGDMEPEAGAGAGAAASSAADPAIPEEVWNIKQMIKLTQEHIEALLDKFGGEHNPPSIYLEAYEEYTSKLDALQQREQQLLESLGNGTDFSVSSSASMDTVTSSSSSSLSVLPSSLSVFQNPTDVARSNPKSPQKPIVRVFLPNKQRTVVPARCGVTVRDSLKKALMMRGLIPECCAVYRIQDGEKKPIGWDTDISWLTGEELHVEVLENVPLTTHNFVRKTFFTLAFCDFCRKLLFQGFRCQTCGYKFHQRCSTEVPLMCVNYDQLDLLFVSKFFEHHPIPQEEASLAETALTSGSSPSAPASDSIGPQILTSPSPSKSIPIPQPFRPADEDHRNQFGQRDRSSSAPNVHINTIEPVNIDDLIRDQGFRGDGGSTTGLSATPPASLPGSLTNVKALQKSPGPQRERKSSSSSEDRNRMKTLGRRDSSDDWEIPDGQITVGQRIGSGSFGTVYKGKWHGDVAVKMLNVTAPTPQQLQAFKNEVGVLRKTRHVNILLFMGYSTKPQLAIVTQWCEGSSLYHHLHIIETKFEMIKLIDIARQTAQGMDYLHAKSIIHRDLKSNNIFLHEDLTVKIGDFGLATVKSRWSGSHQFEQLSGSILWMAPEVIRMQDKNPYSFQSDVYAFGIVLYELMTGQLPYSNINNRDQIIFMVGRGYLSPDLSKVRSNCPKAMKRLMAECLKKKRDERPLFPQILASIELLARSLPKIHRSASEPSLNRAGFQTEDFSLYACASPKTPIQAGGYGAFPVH

SMILES | IC50 (ErbB2) [nM] | IC50 (SK-MEL-28 tumor cells) [nM] | IC50 (B-Raf) [nM] | IC50 (EGFR) [nM] | IC50 (Colo205 tumor cells) [nM]
CC(C)c1nc(-c2ccc(F)c(NS(=O)(=O)c3c(F)cccc3F)c2)c(-c2ccnc(Nc3ncc[nH]3)n2)s1 [Example 147] | > 1000 | 100 to 1000 | 100 to 1000 | > 1000 | 100 to 1000
CC(C)c1nc(-c2ccc(F)c(NS(=O)(=O)c3c(F)cccc3F)c2)c(-c2ccnc(Nc3ccncn3)n2)s1 [Example 148] | > 1000 | 100 to 1000 | 100 to 1000 | > 1000 | 100 to 1000
COc1cc(N2CCN(CCS(C)(=O)=O)CC2)c(C)cc1Nc1nccc(-c2sc(C3CCCC3)nc2-c2cccc(NS(=O)(=O)c3c(F)cccc3F)c2)n1 [Example 149] | 100 to 1000 | 100 to 1000 | 100 to 1000 | > 1000 | < 100
COc1cc(N2CCN(CCS(C)(=O)=O)CC2)c(C)cc1Nc1nccc(-c2sc(C3CCOCC3)nc2-c2cccc(NS(=O)(=O)c3c(F)cccc3F)c2)n1 [Example 150] | < 100 | < 100 | < 100 | < 100 | < 100
CCNc1nc(-c2cccc(NS(=O)(=O)c3c(F)cccc3F)c2)c(-c2ccnc(Nc3cc(C)c(N4CCN(CCS(C)(=O)=O)CC4)cc3OC)n2)s1 [Example 153] | < 100 | 100 to 1000 | < 100 | < 100 | < 100
O=S(=O)(Nc1cccc(-c2nc(N3CCCCC3)sc2-c2ccnc(Nc3ccc(N4CCOCC4)c(F)c3)n2)c1)c1c(F)cccc1F [Example 154] | > 1000 | < 100 | < 100 | > 1000 | < 100
COc1cc(CCN2CCCCC2)c(F)cc1Nc1nccc(-c2sc(C(C)C)nc2-c2cccc(NS(=O)(=O)c3c(F)cccc3F)c2)n1 [Example 156] | 100 to 1000 | 100 to 1000 | < 100 | 100 to 1000 | 100 to 1000
COc1cc(OC2CCN(CCS(C)(=O)=O)CC2)c(C)cc1Nc1nccc(-c2sc(C(C)C)nc2-c2cccc(NS(=O)(=O)c3c(F)cccc3F)c2)n1 [Example 158] | < 100 | < 100 | < 100 | < 100 | < 100
